Results published in patent US12180226B2, “Spirotricycle RIPK1 inhibitors and methods of uses thereof” (Merck Sharp & Dohme LLC, priority 2021, dated 2024).
pEC50: −log10 of the molar value. Structures can show the parent of a compound that is named as a salt.

biological target: RIPK1 (recombinant GST-RIPK1 kinase domain, residues 1-327) (Homo sapiens (Human), UniProt Q13546); assay: RIPK1-ADP-Glo Enzymatic Assay; type: biochemical; settings: ADP-Glo; 25 nM GST-RIPK1, 300 μM ATP; assay lower limit ~25 nM; read-out: RIPK1 V0 Ec50
Sequence (Q13546 1-327): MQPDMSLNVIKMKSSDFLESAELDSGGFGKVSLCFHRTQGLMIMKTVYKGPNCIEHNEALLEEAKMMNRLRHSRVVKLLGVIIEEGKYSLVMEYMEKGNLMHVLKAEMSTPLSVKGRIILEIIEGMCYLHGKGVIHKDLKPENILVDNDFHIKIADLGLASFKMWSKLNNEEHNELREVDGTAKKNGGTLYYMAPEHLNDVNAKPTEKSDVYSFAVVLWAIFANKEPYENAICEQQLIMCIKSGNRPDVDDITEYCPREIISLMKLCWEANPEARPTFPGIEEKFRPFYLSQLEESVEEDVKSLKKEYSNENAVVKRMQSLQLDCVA
Outline: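 Enzyme from baculovirus-infected Sf21 cells, 25 nM final, was pre-incubated 30 min at ambient temperature with compound (ten-point, 1:3 dilution from 100000 nM, 1% DMSO), then reacted 150 min with 300 μM ATP and 3 μM dephosphorylated MBP. ADP was read by luminescence; EC50 from four-parameter fit.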

| SMILES | pEC50 |
| --- | --- |
| COc1ccc(N2CCC3(CC2)O[C@@H]2CC[C@@H](c4cc(F)cc(F)c4)N2C3=O)n2nccc12 [Example 19.1, (5′S,7a′R)-5′-(3,5-Difluorophenyl)-1-(4-methoxypyrazolo[1,5-a]pyridin-7-yl)tetrahydro-3′H-spiro[piperidine-4,2′-pyrrolo[2,1-b]oxazol]-3′-one, TFA] | > 7.60 |
| N#Cc1ccc(N2CCC3(CC2)O[C@@H]2CC[C@@H](c4ccccc4)N2C3=O)c2ccnn12 [Example 13.19, 4-((5′S,7a′R)-3′-oxo-5′ phenyltetrahydro-3′H-spiro[piperidine-4,2′-pyrrolo[2,1-b]oxazol]-1-yl)pyrazolo[1,5-a]pyridine-7-carbonitrile, TFA salt] | > 7.60 |
| O=C(c1cc(I)c(I)c(I)c1)N1CCC2(CC1)O[C@@H]1CC[C@@H](c3cc(F)cc(F)c3)N1C2=O [Example 5.65, (5′S,7a′R)-5′-(3,5-difluoro-phenyl)-1-(3,4,5-triiodo-benzoyl)tetrahydro-3′H-spiro[piperidine-4,2′-pyrrolo[2,1-b]oxazol]-3′-one] | 6.61 |
| O=C1N2[C@@H](CC[C@H]2c2ccccc2)SC12CCN(c1ccnc3c(F)cnn13)CC2 [Example 4.132, (5′S,7a′R)-1-(3-fluoropyrazolo[1,5-a]pyrimidin-7-yl)-5′-phenyltetrahydro-3′H-spiro[piperidine-4,2′-pyrrolo[2,1-b]thiazol]-3′-one] | > 7.60 |
| O=C1N2[C@@H](CC[C@H]2c2cc(F)cc(F)c2)OC12CCN(c1ncnn3cccc13)CC2 [Example 13.11, (5′S,7a′R)-5′-(3,5-difluorophenyl)-1-(pyrrolo [2,1-f][1,2,4]triazin-4-yl)tetrahydro-3′H-spiro[piperidine-4,2′-pyrrolo[2,1-b]oxazol]-3′-one, TFA salt] | > 7.60 |
| O=C1N2[C@@H](CC[C@H]2c2cc(F)cc(F)c2)OC12CCN(S(=O)(=O)c1ccccc1)CC2 [Example 8.1, (5′S,7a′R)-5′-(3,5-Difluorophenyl)-1-(phenylsulfonyl)tetrahydro-3′H-spiro[piperidine-4,2′-pyrrolo[2,1-b]oxazol]-3′-one] | 6.14 |
| Cc1cncc(C(=O)N2CCC3(CC2)O[C@@H]2CC[C@@H](c4cc(F)cc(F)c4)N2C3=O)c1 [Example 6.59, (5′S,7a′R)-5'-(3,5-difluorophenyl)-1-(5-methylpyridine-3-carbonyl)tetrahydro-3′H-spiro[piperidine-4,2′-pyrrolo[2,1-b] [1,3]oxazol]-3′-one] | 6.55 |
| O=C(c1cnon1)N1CCC2(CC1)O[C@@H]1CC[C@@H](c3cc(F)cc(F)c3)N1C2=O [Example 5.46, (5′S,7a′R)-5′-(3,5-difluoro-phenyl)-1-(1,2,5-oxazole-3-carbonyl)tetrahydro-3′H-spiro[piperidine-4,2′-pyrrolo-[2,1-b]oxazol]-3′-one] | 6.35 |
| O=C1N2[C@@H](CC[C@H]2c2ccccc2)OC12CCN(c1ccc(-c3nnc(C(F)(F)F)o3)cn1)CC2 [Example 4.165, (5′S,7a′R)-5′-phenyl-1-{5-[5-(trifluoromethyl)-1,3,4-oxadiazol-2-yl]pyridin-2-yl}tetrahydro-3′H-spiro[piperidine-4,2′-pyrrolo[2,1-b] [1,3]oxazol]-3′-one] | 6.84 |
| COc1ccc([C@@H]2CC[C@H]3OC4(CCN(C(=O)c5ccccc5)CC4)C(=O)N32)cc1 [Example 17.8, (5′S,7a′R)-1-benzoyl-5′-(4-methoxyphenyl)tetrahydro-3′H-spiro[piperidine-4,2′-pyrrolo[2,1-b]oxazol]-3′-one] | 7.31 |
| COc1cc(N2CCC3(CC2)O[C@@H]2CC[C@@H](c4ccccc4)N2C3=O)ncc1C#N [Example 4.220, 4-methoxy-6-[(5′S,7a′R)-3′-oxo-5′-phenyltetrahydro-1H,3′H-spiro[piperidine-4,2′-pyrrolo[2,1-b] [1,3]oxazol]-1-yl]pyridine-3-carbonitrile] | > 7.60 |
| O=C1N2[C@@H](CC[C@H]2c2ccccc2)OC12CCN(c1cc(-n3ccnc3)ccn1)CC2 [Example 11.21, (5′S,7a′R)-1-[4-(1H-imidazol-1-yl)pyridin-2-yl]-5′-phenyltetrahydro-3′H-spiro[piperidine-4,2′-pyrrolo[2,1-b][1,3]oxazol]-3′-one] | 6.64 |
| Cc1c(Cl)ncnc1N1CCC2(CC1)O[C@@H]1CC[C@@H](c3ccccc3)N1C2=O [Example 4.30, (5′S,7a′R)-1-(6-chloro-5-methylpyrimidin-4-yl)-5′-phenyltetrahydro-3′H-spiro[piperidine-4,2′-pyrrolo[2,1-b] [1,3]oxazol]-3′-one] | > 7.60 |
| COC(=O)c1cnc(N2CCC3(CC2)O[C@@H]2CC[C@@H](c4ccccc4)N2C3=O)nc1 [Example 4.194, methyl 2-[(5′S,7a′R)-3′-oxo-5′-phenyltetrahydro-1H,3′H-spiro[piperidine-4,2′-pyrrolo[2,1-b] [1,3]oxazol]-1-yl]pyrimidine-5-carboxylate] | 6.16 |
| C[C@@]12CC[C@@H](c3ccccc3)N1C(=O)C1(CCN(C(=O)c3ccccc3)CC1)O2 [Example 6.98, (5′S,7a′R)-1-(benzene-carbonyl)-7a′-methyl-5′-phenyltetrahydro-3′H-spiro[piperidine-4,2′-pyrrolo[2,1-b] [1,3]oxazol]-3′-one] | 6.28 |
| CSc1cnc(N2CCC3(CC2)O[C@@H]2CC[C@@H](c4cc(F)cc(F)c4)N2C3=O)nc1 [Example 4.55, (5′S,7a′R)-5′-(3,5-difluorophenyl)-1-[5-(methylsulfanyl)pyrimidin-2-yl]tetrahydro-3′H-spiro[piperidine-4,2′-pyrrolo[2,1-b] [1,3]oxazol]-3′-one] | 6.61 |
| N#Cc1ccc(C(=O)N2CCC3(CC2)O[C@@H]2CC[C@@H](c4cc(F)cc(F)c4)N2C3=O)c(F)c1 [Example 5.20, 4-((5′S,7a′R)-5′-(3,5-difluorophenyl)-3′-oxo-tetrahydro-3′H-spiro [piperidine-4,2′-pyrrolo-[2,1-b]oxazole]-1-carbon-yl)-3-fluorobenzonitrile] | 6.67 |
| Cc1ccc(C(=O)N2CCC3(CC2)O[C@@H]2CC[C@@H](c4cc(F)cc(F)c4)N2C3=O)s1 [Example 5.34, (5′S,7a′R)-5′-(3,5-difluoro-phenyl)-1-(5-methylthio-phene-2-carbonyl)tetra-hydro-3′H-spiro[piperidine-4,2′-pyrrolo[2,1-b]oxazol]-3′-one] | > 7.60 |
| O=C(C1CCCCC1)N1CCC2(CC1)O[C@@H]1CC[C@@H](c3cc(F)cc(F)c3)N1C2=O [Example 5.7, (5′S,7a′R)-1-(cyclohexane-carbonyl)-5′-(3,5-difluoro-phenyl)tetrahydro-3′H-spiro[piperidine-4,2′-pyrrolo[2,1-b][1,3]oxazol]-3′-one] | 6.63 |
| CCOc1cnc(N2CCC3(CC2)O[C@@H]2CC[C@@H](c4cc(F)cc(F)c4)N2C3=O)nc1 [Example 4.57, (5′S,7a′R)-5′-(3,5-difluorophenyl)-1-(5-ethoxypyrimidin-2-yl)tetrahydro-3′H-spiro[piperidine-4,2′-pyrrolo[2,1-b] [1,3]oxazol]-3′-one] | 6.61 |
| CCOc1ccc(N2CCC3(CC2)O[C@@H]2CC[C@@H](c4cc(F)cc(F)c4)N2C3=O)n2nccc12 [Example 19.2, (5′S,7a′R)-5′-(3,5-difluorophenyl)-1-(4-ethoxypyrazolo[1,5-a]pyridin-7-yl)tetrahydro-3′H-spiro[piperidine-4,2′-pyrrolo[2,1-b]oxazol]-3′-one, TFA salt] | > 7.60 |
| O=C(c1ccccc1)N1CCC2(CC1)S[C@@H]1CC[C@@H](c3ccccc3)N1C2=O [Example 1.23, (5′S,7a′R)-1-(benzenecarbonyl)-5′-phenyltetrahydro-3′H-spiro[piperidine-4,2′-pyrrolo[2,1-b] [1,3]thiazol]-3′-one] | 7.58 |
| CC1CN(C(=O)c2ccccc2)CCC12O[C@@H]1CC[C@@H](c3cc(F)cc(F)c3)N1C2=O (single isomer, unassigned) [Example 2.7, (3[R or S],4[S or R], 5′S,7a′R)-1-benzoyl-5′-(3,5-difluorophenyl)-3-methyltetrahydro-3′H-spiro[piperidine-4,2′-pyrrolo[2,1-b]oxazol]-3′-one] | 7.37 |
| COc1ccc(F)c(C(=O)N2CCC3(CC2)O[C@@H]2CC[C@@H](c4cc(F)cc(F)c4)N2C3=O)c1 [Example 6.6, (5′S,7a′R)-5′-(3,5-difluorophenyl)-1-(2-fluoro-5-methoxy-benzene-1-carbonyl) tetrahydro-3′H-spiro [piperidine-4,2′-pyrrolo[2,1-b][1,3]oxazol]-3′-one] | > 7.60 |
| O=C1N2[C@@H](CC[C@H]2c2ccccc2)OC12CCN(c1ncnc3c(I)cnn13)CC2 [Example 4.219, (5′S,7a′R)-1-(8-iodopyrazolo[1,5-a] [1,3,5]triazin-4-yl)-5′-phenyltetrahydro-3′H-spiro[piperidine-4,2′-pyrrolo[2,1-b] [1,3]oxazol]-3′-one] | > 7.60 |
| COc1nc(N2CCC3(CC2)O[C@@H]2CC[C@@H](c4cc(F)cc(F)c4)N2C3=O)ncc1C#N [Example 4.38, 2-[(5′S,7a′R)-5′-(3,5-difluorophenyl)-3′-oxotetrahydro-1H,3′H-spiro[piperidine-4,2′-pyrrolo[2,1-b] [1,3]oxazol]-1-yl]-4-methoxypyrimidine-5-carbonitrile] | 7.92 |
| N#Cc1cnc(N2CCC3(CC2)O[C@@H]2CC[C@@H](c4cc(F)cc(F)c4)N2C3=O)cc1F [Example 4.75, 6-[(5′S,7a′R)-5′-(3,5-difluorophenyl)-3′-oxotetrahydro-1H,3′H-spiro[piperidine-4,2′-pyrrolo[2,1-b] [1,3]oxazol]-1-yl]-4-fluoropyridine-3-carbonitrile] | > 7.60 |
| O=C(c1ccc(F)cn1)N1CCC2(CC1)O[C@@H]1CC[C@@H](c3cc(F)cc(F)c3)N1C2=O [Example 6.14, (5′S,7a′R)-5′-(3,5-difluorophenyl)-1-(5-fluoropyridine-2-carbonyl)tetrahydro-3′H-spiro[piperidine-4,2′-pyrrolo[2,1-b] [1,3]oxazol]-3′-one] | 7.52 |
